Laboratory results: ChEMBL document CHEMBL4507285, “Data for DCP probe MRL-SYKi” (2021)
The source made the active and inactive calls.

How the values were obtained:
[1] = molecular target: Tyrosine-protein kinase SYK (Homo sapiens, UniProt P43405); test: Human SKY enzyme assay
[2] = test system: Tyrosine-protein kinase ABL1 (Homo sapiens), P00519 [T315I]; details: Compound concentration 100.0 nM
[3] = molecular target: Mitogen-activated protein kinase kinase kinase 5 (Homo sapiens) (UniProt Q99683); details: Compound concentration 100.0 nM
[4] = molecular target: Cyclin-dependent kinase-like 3 (Homo sapiens) (UniProt Q8IVW4); details: Compound concentration 100.0 nM
[5] = molecular target: Tyrosine-protein kinase CSK (Homo sapiens) (UniProt P41240); details: Compound concentration 100.0 nM
[6] = molecular target: Serine/threonine-protein kinase 17A (Homo sapiens) (UniProt Q9UEE5); details: Compound concentration 100.0 nM
[7] = test system: Epidermal growth factor receptor (Homo sapiens), P00533 [UNDEFINED MUTATION]; details: Compound concentration 100.0 nM
[8] = molecular target: Ephrin type-A receptor 3 (Homo sapiens) (UniProt P29320); details: Compound concentration 100.0 nM
[9] = molecular target: Ephrin type-B receptor 1 (Homo sapiens) (UniProt P54762); details: Compound concentration 100.0 nM
[10] = molecular target: Mitogen-activated protein kinase 4 (Homo sapiens) (UniProt P31152); details: Compound concentration 100.0 nM
[11] = molecular target: Receptor-type tyrosine-protein kinase FLT3 (Homo sapiens) (UniProt P36888); details: Compound concentration 100.0 nM
[12] = molecular target: Serine/threonine-protein kinase haspin (Homo sapiens) (UniProt Q8TF76); details: Compound concentration 100.0 nM
[13] = molecular target: Tyrosine-protein kinase HCK (Homo sapiens) (UniProt P08631); details: Compound concentration 100.0 nM
[14] = molecular target: Tyrosine-protein kinase JAK2 (Homo sapiens, UniProt O60674); details: Compound concentration 100.0 nM
[15] = molecular target: Tyrosine-protein kinase JAK3 (Homo sapiens) (UniProt P52333); details: Compound concentration 100.0 nM
[16] = molecular target: Serine/threonine-protein kinase MARK1 (Homo sapiens) (UniProt Q9P0L2); details: Compound concentration 100.0 nM
[17] = molecular target: MAP/microtubule affinity-regulating kinase 4 (Homo sapiens) (UniProt Q96L34); details: Compound concentration 100.0 nM
[18] = molecular target: Dual specificity mitogen-activated protein kinase kinase 2 (Homo sapiens) (UniProt P36507); details: Compound concentration 100.0 nM
[19] = molecular target: Dual specificity mitogen-activated protein kinase kinase 3 (Homo sapiens) (UniProt P46734); details: Compound concentration 100.0 nM
[20] = molecular target: Dual specificity mitogen-activated protein kinase kinase 4 (Homo sapiens) (UniProt P45985); details: Compound concentration 100.0 nM
[21] = molecular target: Tyrosine-protein kinase Mer (Homo sapiens) (UniProt Q12866); details: Compound concentration 100.0 nM
[22] = molecular target: Dual specificity mitogen-activated protein kinase kinase 7 (Homo sapiens) (UniProt O14733); details: Compound concentration 100.0 nM
[23] = molecular target: Myosin light chain kinase (Homo sapiens) (UniProt Q32MK0); details: Compound concentration 100.0 nM
[24] = molecular target: Myosin light chain kinase, smooth muscle (Homo sapiens) (UniProt Q15746); details: Compound concentration 100.0 nM
[25] = molecular target: Myosin light chain kinase 2, skeletal/cardiac muscle (Homo sapiens) (UniProt Q9H1R3); details: Compound concentration 100.0 nM
[26] = molecular target: Serine/threonine-protein kinase Nek1 (Homo sapiens) (UniProt Q96PY6); details: Compound concentration 100.0 nM
[27] = molecular target: Mitogen-activated protein kinase 11 (Homo sapiens) (UniProt Q15759); details: Compound concentration 100.0 nM
[28] = molecular target: Phosphatidylinositol 5-phosphate 4-kinase type-2 beta (Homo sapiens) (UniProt P78356); details: Compound concentration 100.0 nM
[29] = molecular target: Membrane-associated tyrosine- and threonine-specific cdc2-inhibitory kinase (Homo sapiens) (UniProt Q99640); details: Compound concentration 100.0 nM
[30] = molecular target: Serine/threonine-protein kinase N2 (Homo sapiens) (UniProt Q16513); details: Compound concentration 100.0 nM
[31] = molecular target: Serine/threonine-protein kinase PLK3 (Homo sapiens) (UniProt Q9H4B4); details: Compound concentration 100.0 nM
[32] = molecular target: Serine/threonine-protein kinase SIK2 (Homo sapiens) (UniProt Q9H0K1); details: Compound concentration 100.0 nM
[33] = molecular target: Serine/threonine-protein kinase 33 (Homo sapiens) (UniProt Q9BYT3); details: Compound concentration 100.0 nM
[34] = molecular target: Vascular endothelial growth factor receptor 2 (Homo sapiens) (UniProt P35968); details: Compound concentration 100.0 nM
[35] = molecular target: 5-hydroxytryptamine receptor 1B (Homo sapiens) (UniProt P28222); details: Compound concentration 10.0 uM
[36] = molecular target: 5-hydroxytryptamine receptor 2B (Homo sapiens, UniProt P41595); details: Compound concentration 10.0 uM
[37] = molecular target: D(3) dopamine receptor (Homo sapiens) (UniProt P35462); details: Compound concentration 10.0 uM
[38] = molecular target: D(4) dopamine receptor (Homo sapiens) (UniProt P21917); details: Compound concentration 10.0 uM
[39] = molecular target: Delta-type opioid receptor (Homo sapiens) (UniProt P41143); details: Compound concentration 10.0 uM
[40] = molecular target: Histamine H1 receptor (Homo sapiens) (UniProt P35367); details: Compound concentration 10.0 uM
[41] = molecular target: Alpha-2B adrenergic receptor (Homo sapiens) (UniProt P18089); details: Compound concentration 10.0 uM
[42] = molecular target: Muscarinic acetylcholine receptor M3 (Homo sapiens) (UniProt P20309); details: Compound concentration 10.0 uM
[43] = molecular target: Muscarinic acetylcholine receptor M4 (Homo sapiens) (UniProt P08173); details: Compound concentration 10.0 uM
[44] = molecular target: GABA-A receptor; anion channel (Rattus norvegicus) (UniProt O09028+P15431+P18506+P18508+P19969+P20236+P23574+P23576+P28471+P28473+P30191+P62813+P63079+P63138+Q91ZM7+Q9ES14); details: Compound concentration 10.0 uM
[45] = species on record: Rattus norvegicus; details: Compound concentration 10.0 uM

Chain of Alpha-2B adrenergic receptor (Homo sapiens) (P18089 whole entry): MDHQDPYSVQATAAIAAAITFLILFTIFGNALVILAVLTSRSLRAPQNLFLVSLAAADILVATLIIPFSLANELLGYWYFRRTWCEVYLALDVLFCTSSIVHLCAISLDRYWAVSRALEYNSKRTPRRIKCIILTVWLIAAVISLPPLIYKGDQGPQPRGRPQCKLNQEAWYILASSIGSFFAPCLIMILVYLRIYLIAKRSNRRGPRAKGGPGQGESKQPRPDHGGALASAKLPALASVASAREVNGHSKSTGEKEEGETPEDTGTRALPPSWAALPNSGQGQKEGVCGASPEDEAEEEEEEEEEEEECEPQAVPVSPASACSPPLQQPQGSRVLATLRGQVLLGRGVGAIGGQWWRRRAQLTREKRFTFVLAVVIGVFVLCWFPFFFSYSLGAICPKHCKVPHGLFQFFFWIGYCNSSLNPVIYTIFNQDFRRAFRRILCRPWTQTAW
Chain of Serine/threonine-protein kinase SIK2 (Homo sapiens) (Q9H0K1 whole entry, looked up): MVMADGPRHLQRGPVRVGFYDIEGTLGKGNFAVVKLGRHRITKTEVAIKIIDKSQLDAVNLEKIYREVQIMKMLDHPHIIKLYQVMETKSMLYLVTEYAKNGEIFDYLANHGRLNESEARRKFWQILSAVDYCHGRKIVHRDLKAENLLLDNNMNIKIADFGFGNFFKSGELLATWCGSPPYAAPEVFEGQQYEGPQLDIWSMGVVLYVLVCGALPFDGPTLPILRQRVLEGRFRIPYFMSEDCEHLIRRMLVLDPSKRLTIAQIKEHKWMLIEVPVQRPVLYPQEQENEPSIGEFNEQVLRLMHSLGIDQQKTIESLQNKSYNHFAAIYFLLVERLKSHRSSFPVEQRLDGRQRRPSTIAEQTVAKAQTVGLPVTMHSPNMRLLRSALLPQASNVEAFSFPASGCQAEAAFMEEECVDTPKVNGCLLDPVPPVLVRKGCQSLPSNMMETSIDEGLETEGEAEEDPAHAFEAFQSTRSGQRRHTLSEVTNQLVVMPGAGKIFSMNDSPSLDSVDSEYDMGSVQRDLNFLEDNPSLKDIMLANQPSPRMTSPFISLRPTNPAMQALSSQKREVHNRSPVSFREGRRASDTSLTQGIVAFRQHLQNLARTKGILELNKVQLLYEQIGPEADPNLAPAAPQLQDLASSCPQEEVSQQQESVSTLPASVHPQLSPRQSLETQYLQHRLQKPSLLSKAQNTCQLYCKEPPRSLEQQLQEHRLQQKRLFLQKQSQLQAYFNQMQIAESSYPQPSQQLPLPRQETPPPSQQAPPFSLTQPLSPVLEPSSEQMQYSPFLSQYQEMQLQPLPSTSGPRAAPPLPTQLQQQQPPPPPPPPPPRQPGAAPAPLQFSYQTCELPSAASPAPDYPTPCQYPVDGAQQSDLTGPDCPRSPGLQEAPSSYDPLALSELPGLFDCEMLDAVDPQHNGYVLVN
Chain of Myosin light chain kinase, smooth muscle (Homo sapiens) (Q15746 whole entry): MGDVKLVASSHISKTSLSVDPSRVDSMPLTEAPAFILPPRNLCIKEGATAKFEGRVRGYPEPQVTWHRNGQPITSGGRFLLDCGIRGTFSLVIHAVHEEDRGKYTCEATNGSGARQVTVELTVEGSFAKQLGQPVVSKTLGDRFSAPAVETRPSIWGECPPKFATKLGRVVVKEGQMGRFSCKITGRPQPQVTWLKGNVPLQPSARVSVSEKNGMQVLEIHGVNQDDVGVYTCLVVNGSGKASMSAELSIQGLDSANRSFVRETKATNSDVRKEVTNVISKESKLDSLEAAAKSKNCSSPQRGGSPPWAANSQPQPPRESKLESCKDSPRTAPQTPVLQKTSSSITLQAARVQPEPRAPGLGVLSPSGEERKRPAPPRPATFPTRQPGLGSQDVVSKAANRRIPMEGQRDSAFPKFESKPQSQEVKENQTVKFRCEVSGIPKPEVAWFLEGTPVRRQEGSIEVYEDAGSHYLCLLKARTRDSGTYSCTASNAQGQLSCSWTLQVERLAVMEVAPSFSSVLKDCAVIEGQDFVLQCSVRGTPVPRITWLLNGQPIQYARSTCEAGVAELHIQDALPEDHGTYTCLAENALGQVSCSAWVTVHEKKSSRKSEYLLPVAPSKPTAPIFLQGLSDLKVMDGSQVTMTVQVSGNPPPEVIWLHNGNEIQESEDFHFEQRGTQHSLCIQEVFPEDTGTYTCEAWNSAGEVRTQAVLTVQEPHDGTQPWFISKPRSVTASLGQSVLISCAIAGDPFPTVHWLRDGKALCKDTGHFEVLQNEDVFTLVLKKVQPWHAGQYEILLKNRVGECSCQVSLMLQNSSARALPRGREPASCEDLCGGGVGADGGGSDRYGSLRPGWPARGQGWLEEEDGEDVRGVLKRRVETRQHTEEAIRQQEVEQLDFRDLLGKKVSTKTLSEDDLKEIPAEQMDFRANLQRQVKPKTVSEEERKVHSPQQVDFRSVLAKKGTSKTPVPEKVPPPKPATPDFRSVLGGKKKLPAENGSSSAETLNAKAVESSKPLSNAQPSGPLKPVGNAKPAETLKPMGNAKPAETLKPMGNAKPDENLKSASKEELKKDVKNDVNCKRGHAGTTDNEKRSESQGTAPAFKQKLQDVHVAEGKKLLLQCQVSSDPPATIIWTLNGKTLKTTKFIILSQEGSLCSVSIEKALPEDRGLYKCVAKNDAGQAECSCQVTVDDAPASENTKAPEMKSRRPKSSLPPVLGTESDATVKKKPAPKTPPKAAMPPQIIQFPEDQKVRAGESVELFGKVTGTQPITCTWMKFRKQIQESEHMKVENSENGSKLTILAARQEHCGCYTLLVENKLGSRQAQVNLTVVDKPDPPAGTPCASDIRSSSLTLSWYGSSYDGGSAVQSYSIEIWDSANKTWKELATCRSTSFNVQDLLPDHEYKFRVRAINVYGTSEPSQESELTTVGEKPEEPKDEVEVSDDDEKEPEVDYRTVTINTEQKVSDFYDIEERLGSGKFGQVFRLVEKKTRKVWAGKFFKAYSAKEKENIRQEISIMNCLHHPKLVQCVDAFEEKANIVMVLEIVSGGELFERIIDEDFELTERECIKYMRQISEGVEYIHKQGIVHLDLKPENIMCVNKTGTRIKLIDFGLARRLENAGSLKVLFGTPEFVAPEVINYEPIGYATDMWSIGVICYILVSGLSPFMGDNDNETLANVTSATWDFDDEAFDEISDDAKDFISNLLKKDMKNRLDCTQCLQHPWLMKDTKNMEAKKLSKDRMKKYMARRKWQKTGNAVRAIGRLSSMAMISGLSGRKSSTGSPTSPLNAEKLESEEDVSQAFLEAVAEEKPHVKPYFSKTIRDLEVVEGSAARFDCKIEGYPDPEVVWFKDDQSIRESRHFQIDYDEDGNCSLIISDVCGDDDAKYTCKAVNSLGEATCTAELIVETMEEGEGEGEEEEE
Chain of Dual specificity mitogen-activated protein kinase kinase 7 (Homo sapiens) (O14733 whole entry): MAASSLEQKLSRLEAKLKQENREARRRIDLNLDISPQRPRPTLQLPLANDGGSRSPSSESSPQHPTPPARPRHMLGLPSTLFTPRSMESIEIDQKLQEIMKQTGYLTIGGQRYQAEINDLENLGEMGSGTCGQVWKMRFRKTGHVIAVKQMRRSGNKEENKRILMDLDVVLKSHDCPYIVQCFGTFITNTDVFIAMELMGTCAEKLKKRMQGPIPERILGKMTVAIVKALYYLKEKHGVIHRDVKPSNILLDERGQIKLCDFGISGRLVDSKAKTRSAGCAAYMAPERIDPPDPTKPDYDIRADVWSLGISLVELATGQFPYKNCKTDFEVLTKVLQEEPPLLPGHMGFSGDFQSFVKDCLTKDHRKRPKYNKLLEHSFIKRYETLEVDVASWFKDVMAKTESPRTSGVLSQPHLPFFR
Chain of Phosphatidylinositol 5-phosphate 4-kinase type-2 beta (Homo sapiens) (P78356 whole entry): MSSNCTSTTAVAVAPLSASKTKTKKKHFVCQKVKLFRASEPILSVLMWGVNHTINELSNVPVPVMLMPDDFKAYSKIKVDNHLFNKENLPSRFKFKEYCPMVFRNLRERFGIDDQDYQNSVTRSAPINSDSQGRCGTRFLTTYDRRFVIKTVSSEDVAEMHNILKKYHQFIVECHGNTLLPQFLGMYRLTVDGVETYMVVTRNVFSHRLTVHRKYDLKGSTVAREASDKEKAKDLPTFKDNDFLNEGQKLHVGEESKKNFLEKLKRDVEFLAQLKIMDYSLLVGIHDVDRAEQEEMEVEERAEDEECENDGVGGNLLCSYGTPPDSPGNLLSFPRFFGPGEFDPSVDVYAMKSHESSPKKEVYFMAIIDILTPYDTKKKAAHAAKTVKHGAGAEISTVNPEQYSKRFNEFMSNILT
Chain of Dual specificity mitogen-activated protein kinase kinase 3 (Homo sapiens) (P46734 whole entry): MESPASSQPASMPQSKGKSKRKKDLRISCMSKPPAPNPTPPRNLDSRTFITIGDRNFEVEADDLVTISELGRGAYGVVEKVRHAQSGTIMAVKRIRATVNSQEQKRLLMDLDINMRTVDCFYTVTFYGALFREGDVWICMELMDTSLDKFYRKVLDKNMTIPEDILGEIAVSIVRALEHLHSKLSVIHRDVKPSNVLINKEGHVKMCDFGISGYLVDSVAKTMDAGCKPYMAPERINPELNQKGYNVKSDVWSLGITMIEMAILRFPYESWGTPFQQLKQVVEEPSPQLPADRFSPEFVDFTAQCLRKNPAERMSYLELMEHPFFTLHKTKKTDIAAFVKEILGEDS
Chain of Mitogen-activated protein kinase 11 (Homo sapiens) (Q15759 whole entry): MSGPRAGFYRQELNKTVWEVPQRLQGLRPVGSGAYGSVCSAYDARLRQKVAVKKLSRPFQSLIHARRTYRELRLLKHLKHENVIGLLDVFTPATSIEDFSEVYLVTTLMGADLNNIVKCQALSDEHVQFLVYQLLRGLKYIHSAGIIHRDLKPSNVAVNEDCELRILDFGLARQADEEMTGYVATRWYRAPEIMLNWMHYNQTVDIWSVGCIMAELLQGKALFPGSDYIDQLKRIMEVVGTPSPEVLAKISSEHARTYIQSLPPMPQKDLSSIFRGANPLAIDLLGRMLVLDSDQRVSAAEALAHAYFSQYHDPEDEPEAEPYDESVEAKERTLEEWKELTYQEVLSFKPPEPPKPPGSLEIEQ

Cc1ccc(-c2cnc([C@@]3(O)CC[C@H](C(=O)O)C(C)(C)C3)s2)cc1Nc1cccc(C(F)(F)F)n1 [MRL-SYKi-NC]
4700 nM (not active): IC50 [1]
inactive: residual activity [2] 88% | residual activity [3] 100% | residual activity [4] 100% | residual activity [5] 82.3% | residual activity [6] 96.7% | residual activity [7] 67.1% | residual activity [8] 93.7% | residual activity [9] 98.7% | residual activity [10] 100% | residual activity [11] 100% | residual activity [13] 71.9% | residual activity [14] 96.6% | residual activity [16] 62.8% | residual activity [17] 71.5% | residual activity [18] 87% | residual activity [19] 90% | residual activity [20] 81.2% | residual activity [21] 100% | residual activity [22] 77.8% | residual activity [23] 90.9% | residual activity [24] 86.6% | residual activity [25] 90.9% | residual activity [26] 67.1% | residual activity [27] 98.7% | residual activity [28] 61.3% | residual activity [29] 93.1% | residual activity [30] 96.3% | residual activity [31] 100% | residual activity [32] 88.9% | residual activity [33] 100% | residual activity [34] 100% | inhibition [35] 20.2% | inhibition [37] -8.44% | inhibition [38] -9.54% | inhibition [39] 25.1% | inhibition [40] 9.09% | inhibition [41] 27% | inhibition [42] 6.69% | inhibition [43] 20% | inhibition [44] 19%
active: residual activity [12] 47% | residual activity [15] 42% | inhibition [36] 77.9% | inhibition [45] 71.8%

Cc1cc(Nc2nccc(C)n2)cc(-c2cnc([C@@]3(O)CC[C@H](C(=O)O)C(C)(C)C3)s2)c1 [MRL-SYKi]
inactive: residual activity [2] 100% | residual activity [3] 83.3% | residual activity [4] 100% | residual activity [5] 100% | residual activity [6] 99.6% | residual activity [7] 67.7% | residual activity [8] 100% | residual activity [9] 100% | residual activity [10] 100% | residual activity [11] 100% | residual activity [12] 90.8% | residual activity [13] 83.3% | residual activity [15] 60.9% | residual activity [16] 95.3% | residual activity [17] 100% | residual activity [18] 89.4% | residual activity [20] 100% | residual activity [21] 81.5% | residual activity [22] 90.3% | residual activity [23] 100% | residual activity [24] 92.9% | residual activity [25] 100% | residual activity [26] 100% | residual activity [27] 100% | residual activity [28] 79.6% | residual activity [29] 100% | residual activity [30] 100% | residual activity [31] 74.6% | residual activity [32] 95.7% | residual activity [33] 64.4% | residual activity [34] 100% | inhibition [35] 11.6% | inhibition [36] 6.38% | inhibition [37] -5.53% | inhibition [38] -6.05% | inhibition [39] 12.8% | inhibition [40] 7.85% | inhibition [41] -7.14% | inhibition [42] 17.4% | inhibition [43] 16.7% | inhibition [44] 25.9% | inhibition [45] 3.63%
active: IC50 [1] 0.9 nM | residual activity [14] 45.5% | residual activity [19] 29.5%
